Data: publication PMC13168289, “Potent acridone antimalarial against all three life stages of Plasmodium” (Nature Communications, 2026)
Where “and” joins values, the source holds several entries; their conditions need not be identical. Equal entries are not always repeated. Where two headings read alike, the source gives them in different places.

How the values were obtained:
[1] = set-up: method as in reviewer #3 remark; conditions: in humans; ref reviewer #3 remark; cited from earlier work
[2] = system: P. falciparum mutant T111 lines; assay: drug susceptibility of T111-selected cyt b mutant lines; type: cell-based, Plasmodium falciparum; conditions: Plasmodium falciparum, DD2, Supplementary Table 4
Protocol: DNA extractions were performed on clonal parasites using the QIAamp DNA extraction kit (QIAGEN Inc, Valencia, CA) or ZYMO Quick gDNA Miniprep kit (Zymo Research Corp, Irvine, CA). For sequencing of the open reading frame of pfcytb, PCR was performed with genomic DNA using forward and reverse flanking primers for cyt b primer 1: 5’-[…]-3’ and primer 2: 5’-[…]-3’. PCR products were subjected to enzymatic cleanup with ExoSAP-IT (Thermo Fisher Scientific) and sent for Sanger sequencing (Eurofins Genomics, Louisville, KY) with PCR primer 2 paired with an internal forward primer: 5’-[…]-3’ and an internal reverse primer: 5’-[…]-3’. Sequences were assembled using 4Peaks software (Nucleobytes, Amsterdam, Netherlands) and aligned with Clustal Omega (EMBL-EBI). For sequencing of the open reading frame of pfdhodh, PCR was performed with genomic DNA using forward primer: 5’-[…]-3’ and reverse primer: 5’-[…]-3’. PCR products were prepared for Sanger sequencing and analyzed as described above, except using two forward primers: 5’-[…]-3’ and 5’-[…]-3’ and with two reverse primers: 5’-[…]-3’ and 5’-[…]-3’.
(§1) Drug susceptibility assays against P. falciparum strains were performed using a SYBR Green based assay. D6 and Dd2 were obtained from MR4. Tm90-C2B was obtained from WRAIR. Dd2-D1^I22L and ELQ-300 were obtained from VAPORHCS. D10yDHODH was obtained as a courtesy from Dr. Akhil Vaidya at Drexel University. P. yoelii ATV^r and ELQ-300^r clones were obtained from VAPORHCS.

[3] = cited from earlier work
[4] = cytotoxicity against HepG2 cells; type: cell-based; conditions: human; HepG2; read-out: inhibition IC50 vs HepG2
Protocol: Cytotoxicity was evaluated in human HepG2 liver cells, using an MTT assay. Briefly, HepG2 cells were cultured in complete Dulbecco’s modified Eagle’s medium (DMEM; Gibco-Invitrogen, No. 11995-065) prepared by supplementing DMEM with 10% heat inactivated FBS (Gibco-Invitrogen, No. 16000-036), 100 units/mL penicillin, and 100 µg/mL streptomycin. Cell viability was assessed using trypan blue. Ninety-six-well plates were seeded with 2 × 10^4 cells per well and incubated at 37 °C overnight in a humidified 5% CO2 atmosphere. Test compound plates were prepared with an INTEGRA assist plus station and 96-well plates containing 11 duplicate 2-fold serial dilutions of test compound suspended in DMSO. The diluted test compound was then added to the corresponding well preseeded with HepG2 cells. […] After incubation, 20 µL of a 0.1 mg/mL solution of resazurin diluted in PBS was added to each well, and all plates were subsequently incubated for 3–4 h in an incubator. Absorbance was determined with the Molecular Devices SpectraMax plate reader. Three independent experiments, each in duplicate, were performed, and the IC50 values were determined using GraphPad Prism software (Version 10) using the non-linear regression equation (sigmoidal dose-response, variable slope).

[5] = system: P. falciparum D6, Dd2, Tm90-C2B, Dd2-D1^I22L, D10yDHODH; assay: microbe, parasite or virus in culture; type: cell-based, Plasmodium falciparum; conditions: Plasmodium falciparum
Protocol: as §1

[6] = system: P. cynomolgi hypnozoites and schizonts; assay: in vitro liver-stage P. cynomolgi assay in primary rhesus hepatocytes; type: cell-based, Plasmodium cynomolgi; conditions: read-out: inhibition IC50
Protocol: (§2) The liver-stage P. cynomolgi assay was designed to identify anti-hypnozoite drugs utilizing a 384-well in vitro culture system[31],[37]. Briefly, cryopreserved primary simian hepatocytes (donor lots XGB, OQB, and QHO: BioIVT, Inc.) were seeded in collagen-coated 384-well plates and infected with P. cynomolgi bastianellii (B strain) sporozoites dissected from infected Anopheles dirus mosquitoes. Test compounds were solubilized in 100% DMSO and serially diluted 2-fold to generate up to a 12-point dose-response curve, maintaining a final DMSO concentration of 0.1% across all wells. Two distinct treatment modes were evaluated. For the prophylactic assay, to assess the prevention of infection, compound exposure began 1-hour post-infection with daily media changes on Days 1 and 2. For the radical cure assay, to assess activity against established liver forms, drugs were administered daily from Day 4 through Day 7 post-infection. […] For readout on Day 8, plates were fixed and stained via immunofluorescence to visualize parasite forms (hypnozoites and schizonts) and hepatocyte nuclei, and images were acquired using an Operetta CLS high-content imaging system (PerkinElmer). Host hepatocyte viability was measured in parallel to determine compound toxicity. Parasite forms were automatically quantified using Harmony 4.9 software, and percent inhibition and toxicity were calculated relative to in-plate DMSO vehicle controls. IC50 and CC50 (half-maximal cytotoxic concentrations) were determined by fitting dose-response data to a four-parameter logistic (variable slope) model using a custom Python script incorporating a grid search algorithm.

[7] = system: rhesus hepatocytes; assay: host hepatocyte viability in the P. cynomolgi assay; type: cell-based; conditions: radical cure mode; read-out: cytotoxicity CC50
Protocol: as §2

[8] = as above; type: cell-based, rhesus; conditions: rhesus monkey; radical cure mode; read-out: cytotoxicity CC50
Protocol: as §2

[9] = pilot safety study in rhesus monkeys; type: in vivo; conditions: response to reviewers
[10] = system: P. falciparum NF54 oocysts in mosquitoes; assay: tarsal contact assay; type: in vivo, P. falciparum in Anopheles gambiae G3; conditions: 5% by weight film, 6 min contact
Protocol: The tarsal assay using a thin film was performed. For preparation of a thin film, 25 mL xylenes and 1.0 g low density polyethylene polymer were combined on the lid of a glass petri dish (6 cm) and heated at 150 °C until the polymer was dissolved. Xylenes were occasionally replenished upon evaporation. A solution of xylenes containing […] prodrug was then added to the above solution. […] The crude polymer thin film was then put underneath the glass petri dish, and the assembled apparatus was heated on a hot plate with a weight placed on top. The resulting extruded polymer thin film containing the 5% (w/w) […] prodrug in low-density polyethylene (LDPE) was allowed to cool and removed from the petri dish lid. […] After exposure, the mosquitoes were immediately transferred to a cage and one hour later provided with cultured P. falciparum NF54 gametocyte-infected erythrocytes using a membrane feeder. […] On Day 7 post-infection, mosquitoes were aspirated into 80% ethanol and incubated at -20 °C for 10 min before being transferred to 1X PBS for dissection. […] Midguts were imaged and oocysts counted at 100× magnification on an Olympus Inverted CKX41 microscope to quantify oocyst prevalence and intensity.

[11] = system: luciferase-expressing P. berghei sporozoites; assay: liver-stage prophylaxis murine model with IVIS bioluminescence imaging; type: in vivo, P. berghei in Albino C57BL/6 mice; conditions: Days -1, 0, 1
Text: Four- to six-week-old female inbred Albino C57BL/6 mice (18–22 g, Jackson Laboratories, Bar Harbor, ME, USA) were utilized. Animals were assigned unique study numbers via ear tags and cage cards and were randomly assigned to treatment or control groups (n = 5 per group) using a weigh-stratified randomization procedure. All animals were quarantined and acclimatized for 7 days prior to study initiation and were housed in a 12:12 light/dark cycle with food and water provided ad libitum. Mice were infected intravenously with 10^4 luciferase-expressing P. berghei sporozoites (ANKA strain) via tail vein injection on Day 0. Drugs were dissolved in PEG-400 and administered orally once per day on Day -1, Day 0, and Day 1. […] Infection reduction was assessed by comparing the bioluminescence signals emitted by treated groups with signals emitted by the vehicle control-treated group at that time point. Later blood-stage parasitemia was determined via flow cytometry. […] Long-term blood-stage efficacy was evaluated starting on Day 6 post-infection and continued for up to 31 days using flow cytometry.
In vivo antimalarial efficacy studies were performed as described above.

[12] = system: blood-stage P. yoelii; assay: 4-day suppression murine model, oral; type: in vivo, P. yoelii in CF1 mice
Text: (§3) Animals were housed at the VAPORHCS in Thoren Maxi-Miser microisolator cages (78 sq. in. floor space) with a maximum density of five females or four males per cage. Cages were maintained on a 12-h light/dark cycle and provided with autoclaved nesting materials (nestlets) for environmental enrichment. All mice had ad libitum access to food and water. Four- to five-week-old female and male outbred CF1 mice (Charles River Laboratories, Raleigh, NC, USA) were randomly assigned to treatment and control groups using a simple randomization procedure (e.g., computer-generated random numbers) to ensure balanced distribution of baseline body weights and starting parasitemia levels across all cohorts. Groups of four mice (n = 4, mean body weight of each group was ~30 g) were infected intravenously with 3.5 × 10^4 P. yoelii (Kenya strain, MRA-428) from a donor animal. Drug administration commenced the day after the animals were inoculated (Day 1). The test drug or the drug combination was dissolved in PEG-400 and administered by oral gavage once daily for 4 successive days in the 4-day suppression model, but only once on Day 1 in the single-dose cure model. Blood was collected via the tail vein with the aid of a syringe needle on Day 5 and then at weekly intervals through Day 28. Blood films were Giemsa-stained and examined microscopically to determine the level of parasitemia. All mice were observed daily to assess clinical signs. Animals with observable parasitemia following the experiments were euthanized; animals cleared of parasitemia from their bloodstream were observed daily with assessment of parasitemia performed weekly until Day 28, at which point, the animal(s) were scored as cured of the infection and then humanely euthanized. All treated mice with a negative smear on Day 28 were considered cured (100% protection). […]

[13] = system: blood-stage P. yoelii; assay: single-dose cure murine model, oral; type: in vivo, P. yoelii in CF1 mice
Text: as §3

[14] = Plasmodium cynomolgi, Hepatocyte, in Macaca mulatta, prophylactic mode, hypnozoite
[15] = Plasmodium cynomolgi, Hepatocyte, in Macaca mulatta, prophylactic mode, schizont
[16] = Plasmodium cynomolgi, Hepatocyte, in Macaca mulatta, radical cure mode, hypnozoite
[17] = Plasmodium cynomolgi, Hepatocyte, in Macaca mulatta, radical cure mode, schizont

CCN(CC)CCCC(C)Nc1ccnc2cc(Cl)ccc12 (stereo not drawn) [CQ, chloroquine]
T1/2 [1]: 480 to 960 h
IC50 ([2]; Dd2): 181 ± 15 nM
IC50 ([2]; Dd2-A131S-140I-259L-264L): 205 ± 21 nM
IC50 ([2]; Dd2-B131S-140I-259L-264L): 168 ± 31 nM
IC50 ([2]; Dd2-D0119L-131S-259L (pfdhodh mutation)): 210 ± 34 nM
IC50 ([2]; Dd2-D1131S-140I-259L (pfdhodh mutation)): 162 ± 18 nM
T1/2 ([3]; healthy mice, ref PMID: 21646487): about 46 h
IC50 at 24 h [4]: 68600 nM
IC50 ([5]; read-out: in vitro IC50 vs P. falciparum, D6): 14 ± 0.7 nM
IC50 ([5]; read-out: in vitro IC50 vs P. falciparum, D10yDHODH): 79 ± 16 nM
IC50 ([5]; read-out: in vitro IC50 vs P. falciparum, Dd2-D1^I22L (ELQ-300-resistant)): 209 ± 26 nM
IC50 ([5]; read-out: in vitro IC50 vs P. falciparum, Tm90-C2B (cyt b Y268S, ATV-resistant)): 211 ± 7.6 nM

CNC(=O)c1ccc(-c2cnc3cnc(C(=O)N(C)c4ccc(Cl)cc4)cn23)cc1 [KDU691]
IC50 ([6]; prophylactic mode, hypnozoite): 120 nM
IC50 ([6]; prophylactic mode, schizont): 98 nM
IC50 ([6]; radical cure mode, hypnozoite): > 20000 nM
IC50 ([6]; radical cure mode, schizont): 190 nM
CC50 [7]: > 20000 nM

CO[C@@H]1[C@@H](OC)[C@H](C)[C@@](O)(CC(=O)O)O[C@H]1[C@H](C)[C@H]1O[C@@]2(CC[C@@](C)([C@H]3CC[C@@](C)([C@@H]4O[C@@H]([C@H]5O[C@](C)(O)[C@H](C)C[C@@H]5C)C[C@@H]4O[C@@H]4C[C@H](OC)[C@@H](OC)[C@H](C)O4)O3)O2)C[C@H](O)[C@H]1C [MAD, maduramicin]
IC50 [6, 14]: < 0.98 nM
IC50 [6, 15]: < 0.98 nM
IC50 [6, 16]: 21 nM
IC50 [6, 17]: 41 nM
CC50 at 4 days [8]: 360 nM

CCOC(=O)Oc1c2ccc(Oc3ccc(OC(F)(F)F)cc3)cc2nc2cc(Cl)cc(F)c12 [T111 prodrug]
tolerability [9]: well-tolerated
reduction in oocyst intensity (inhibition) [10]: 97.6%
reduction in oocyst prevalence (inhibition) [10]: 92.5%

COc1cc(C)c2c(Oc3cccc(C(F)(F)F)c3)c(OC)cc(NC(C)CCCN)c2n1 (stereo not drawn) [TQ, tafenoquine]
T1/2 [1]: 336 h
protection from liver-stage infection ([11]; 1 mg/kg/day oral): did not clear liver-stage infection
protection from liver-stage infection ([11]; 10 mg/kg/day oral): full protection
IC50 [6, 14]: 180 nM
IC50 [6, 15]: 170 nM
IC50 [6, 16]: 8100 nM
IC50 [6, 17]: 9800 nM
ED50 of TQ ([12]; TQ + 0.03 mg/kg/d T111): 0.59 mg/kg/day
ED50 of TQ ([12]; TQ + 0.06 mg/kg/d T111): 0.12 mg/kg/day
ED50 of TQ ([12]; TQ + 0.12 mg/kg/d T111): 0.05 mg/kg/day
ED50 of TQ ([12]; TQ alone, female CF1 mice): 1.70 mg/kg/day
% survival through Day 28 ([13]; TQ 15 + T111 0 mg/kg): 0%
number of mice cured on Day 28 ([13]; TQ 15 + T111 0 mg/kg): 0/4
parasitemia burden on Day 5 ([13]; TQ 15 + T111 0 mg/kg): 0
% survival through Day 28 ([13]; TQ 20 + T111 0 mg/kg): 25%
number of mice cured on Day 28 ([13]; TQ 20 + T111 0 mg/kg): 1/4
parasitemia burden on Day 5 ([13]; TQ 20 + T111 0 mg/kg): 0
% survival through Day 28 ([13]; TQ 30 + T111 0 mg/kg): 75%
number of mice cured on Day 28 ([13]; TQ 30 + T111 0 mg/kg): 3/4
parasitemia burden on Day 5 ([13]; TQ 30 + T111 0 mg/kg): 0
% survival through Day 28 ([13]; TQ 40 + T111 0 mg/kg): 100%
number of mice cured on Day 28 ([13]; TQ 40 + T111 0 mg/kg): single-dose cure in all treated mice and 4/4
parasitemia burden on Day 5 ([13]; TQ 40 + T111 0 mg/kg): 0
T1/2 ([3]; mouse liver, ref internal data from WRAIR): 75 h
T1/2 ([3]; mouse plasma, ref internal data from WRAIR): 50 h
CC50 at 4 days [8]: > 20000 nM
